The values below come from article PMC5589576, “Targeting the apoptotic Mcl-1-PUMA interface with a dual-acting compound” (Oncotarget, 2017).

Assay [1] concerns Caspase-3, Cyto-c and Bcl-2 in A2780, MCF-7 and SMMC-7721 cells. The assay can be described thus: Western blot analysis of apoptotic marker proteins. Type of assay: cell-based. The protocol:
(§1) BH3 peptide of Mcl-1 (FITC-Mcl-BH3, FITC-AHx-Western blot analysis […]
-NH2) was synthesized […]
and used as fluorescence probe in the FPA competition A2780, MCF-7 and SMMC-7721 cells treated with assays. All assays were performed in the assay and without Comp8 were harvested, washed by precooled buffer (pH 7.4) composed of 20 mM Tris, 50 mM NaCl, PBS and split by RIPA lysis buffer (Thermo) containing 3 mM DTT and 2% DMSO. The FPA competition assays PMSF (protease inhibitor). Quantified protein samples were carried out in the 96-well, black, flat-bottom plates were separated by SDS-PAGE and then transferred to NC (Nunc). To check the interference effects of candidate membranes. After being blocked for 1h, all membranes compounds on the interaction between Mcl-1 and FITC- were incubated with primary antibodies against protein Mcl-BH3, solutions containing 250 nM Mcl-1 and 250 nM Caspase (1:500, Abcam), Cyto-c (1:500, Abcam) and fluorescence probes were titrated with 250 μM selected Bcl-2 (1:500, Abcam) at 4℃ overnight. […] The emission fluorescence changes were antibodies (1:10000, Jackson) for 1 h at 37°C, the signals recorded from 480 to 540 nm by TECAN Infinite M1000 were detected with ECL western blot detection system Microplate Spectrophotometer with excitation wavelength (Boster). being 432 nm. […]
On the technique in general: Immunoblotting shows a protein as a band on a membrane.

A further assay concerns the target T1, Mcl-1F251A (Homo sapiens, UniProt Q07820, F270A).
T1 construct: implied by Ni2+-NTA purification from pET-43.1a(+)); made in house; host or cells: E. coli BL21
Nature of the assay: FPA competition assay, mutant Mcl-1 F251A. It is filed as binding. The protocol: 1 protein was induced by 0.6 mM IPTG for 20 h in the Flow cytometry condition of 20°C, 160 rpm. The strains were harvested by centrifugation (6000 rpm, 10 min, 4°C) and broken Tested cells (A2780, MCF-7 and SMMC-7721) by ultrasonication (10 s operation and 10 s stop, 5 min). were plated in 6-well plates (1×10^5 cells/well) and treated […]
All cells were detached by trypsin and washed manufacturer ’s instructions. The purified Mcl-1 was (three times) by precooled PBS. The resuspended cells analyzed by 15% SDS-PAGE and dialyzed against 10 mM were stained by Annexin V-FITC and PI in sequence PBS (pH 7.4) before being stored under −80°C for later use. before being detected by flow cytometry.
FPA competition assays The FITC labelled
as §1
and used as fluorescence probe in the FPA competition A2780, MCF-7 and SMMC-7721 cells treated with assays. All assays were performed in the assay and without Comp8 were harvested, washed by precooled

The test system of assay [2] is A2780, MCF-7 and SMMC-7721. The assay can be described thus: MTT test, three cancer cell lines together. Type of assay: cell-based. The following applies: on A2780, MCF-7 and SMMC-7721, range over the three lines. The protocol: (Nunc). To check the interference effects of candidate membranes. […]
Microplate Spectrophotometer with excitation wavelength (Boster). being 432 nm. The IC50 calculations were performed by Graphpad Prism 5 (Graphpad software, Inc.). Key residues discovery
Tests of candidate compounds on suppressing In the present study, key residues involved in the […]
by using site-directed mutagenesis and FPA competition
Cell lines including A2780, MCF-7 and SMMC- assays in combination. According to the results of pairwise 7721 were cultured to the logarithmic growth phase per-residue free energy decomposition, the residues in 3 ml complete media (RPMI1640 plus 10%FBS), contributing a lot to the binding of PUMA/Comp8 to 4 Mcl-1 were subjected to site-directed mutagenesis. By respectively. After adjusting their concentrations to 5×10 reference to the primers listed in Supplementary Table5, cells/ml with complete media, these cell lines were plated overlapping extension PCR was conducted to realize into 96-well, transparent, flat-bottom plates (150 μl/well), site-directed mutagenesis. After verified by gene each point was prepared in three replicates. The density sequencing, the individually mutated PCR products were of cultured cell lines was evaluated by MTT tests. When cloned into the expressing vector pET-43.1a (+). […]

T1 sequence (Q07820 172-327 F270A): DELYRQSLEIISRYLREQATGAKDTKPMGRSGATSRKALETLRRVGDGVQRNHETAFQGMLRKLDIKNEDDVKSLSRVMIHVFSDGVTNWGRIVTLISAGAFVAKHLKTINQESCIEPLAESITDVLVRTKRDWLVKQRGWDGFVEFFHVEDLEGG

For `O=C1N=C(N2CCN(CCO)CC2)S/C1=C\c1ccc(-c2ccccc2)cc1` [Comp8], the “changes of three apoptosis indicators (WB)” value in assay [1] is “fitted well with the characteristics of apoptosis”. This compound also yielded a Ki on Mcl-1F251A of 0.66 ± 0.13 µM. For the same compound, in assay [2], the IC50 is 20 to 50 µM.

The term Ki denotes the dissociation constant of the complex between target and ligand, obtained from inhibition or displacement. A low value points to tighter binding. A word on the IC50: it is the point on the concentration scale where inhibition reaches its midpoint.
